In this test the target is T1, Full length human recombinant HDAC8 protein (Homo sapiens, UniProt Q9BY41).
T1 construct: Full length human recombinant HDAC8 protein was expressed in baculoviral system; made in house
T1 sequence (Q9BY41 1-377): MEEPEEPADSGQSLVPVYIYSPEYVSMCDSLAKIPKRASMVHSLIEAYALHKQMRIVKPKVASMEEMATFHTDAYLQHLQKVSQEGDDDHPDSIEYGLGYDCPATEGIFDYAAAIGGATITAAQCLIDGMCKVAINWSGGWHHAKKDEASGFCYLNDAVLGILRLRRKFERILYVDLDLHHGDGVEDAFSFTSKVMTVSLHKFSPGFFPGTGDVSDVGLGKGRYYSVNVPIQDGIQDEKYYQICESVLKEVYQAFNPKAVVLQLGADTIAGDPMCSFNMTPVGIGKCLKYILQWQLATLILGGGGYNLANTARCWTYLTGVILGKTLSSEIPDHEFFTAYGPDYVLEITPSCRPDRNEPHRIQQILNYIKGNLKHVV
The experiment in a line: In vitro histone deacetylase assay: enzymatic HDAC8 assay, electrophoretic mobility shift. Format: biochemical. The following applies: substrate RHKK(Ac)-NH2, 1 nM enzyme, compounds listed under IC50 range headings. The gist of the method:
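Readout was microfluidic mobility-shift separation of deacetylated product from fluorescent RHKK(Ac)-NH2 substrate (2 µM), after reaction with 1 nM recombinant full-length human HDAC8 at 25 °C, pH 7.5, stopped with SDS. Twelve 3-fold-spaced concentrations tested; product/sum ratios normalized to controls and fitted with a 4-parameter model for IC50.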

SMILES strings stand for the structures.

A word on the IC50: it is the concentration that inhibits the measured activity by half. Consider `O=C(/C=C/c1ccccc1N1CCN(S(=O)(=O)Cc2ccc(F)cc2)CC1)NO` [Example I-251, (E)-3-(2-(4-((4-fluorobenzyl)sulfonyl)pi-perazin-1-yl)phenyl)-N-hydroxyacrylamide], for which the IC50 is < 1000 nM.
In the case of `O=C(/C=C/c1ccccc1N1CCN(S(=O)(=O)c2ccc(Cl)s2)CC1)NO` [Example I-253, (E)-3-(2-(4-((5-chlorothiophen-2-yl)sulfonyl)piperazin-1-yl)phenyl)-N-hydroxyacrylamide] it was < 1000 nM.
In the case of `O=C(/C=C/c1ccccc1N1CCN(S(=O)(=O)c2cccc3cnccc23)CC1)NO` [Example I-254, (E)-N-hydroxy-3-(2-(4-(isoquinolin-5-ylsulfonyl)piperazin-1-yl)phenyl)acrylamide] it was < 1000 nM.
In the case of `O=C(/C=C/c1ccccc1N1CCN(S(=O)(=O)C2CCOCC2)CC1)NO` [Example I-255, (E)-N-hydroxy-3-(2-(4-((tetrahydro-2H-pyran-4-yl)sulfonyl)piperazin-1-yl)phenyl)acrylamide], the IC50 was < 1000 nM.
Under `COc1ccc(S(=O)(=O)N2CCN(c3ccccc3/C=C/C(=O)NO)CC2)cc1OC` [Example I-256, (E)-3-(2-(4-((3,4-dimethoxyphenyl)sulfonyl)piperazin-1-yl)phenyl)-N-hydroxyacrylamide] stands < 1000 nM.
Under `O=C(/C=C/c1ccccc1N1CCN(S(=O)(=O)Cc2cccc(F)c2)CC1)NO` [Example I-257, (E)-3-(2-(4-((3-fluorobenzyl)sulfonyl)piperazin-1-yl)phenyl)-N-hydroxyacrylamide] stands < 1000 nM.
In the case of `Cn1cnc(S(=O)(=O)N2CCN(c3ccccc3/C=C/C(=O)NO)CC2)c1` [Example I-258, (E)-N-hydroxy-3-(2-(4-((1-methyl-1H-imidazol-4-yl)sulfonyl)piperazin-1-yl)phenyl)acrylamide] it was < 1000 nM; in that of `O=C(/C=C/c1ccccc1N1CCN(S(=O)(=O)Cc2ccc(Cl)cc2F)CC1)NO` [Example I-259, (E)-3-(2-(4-((4-chloro-2-fluorobenzyl)sulfonyl)pi-perazin-1-yl)phenyl)-N-hydroxyacrylamide], < 1000 nM.
Regarding `O=C(/C=C/c1ccccc1N1CCN(S(=O)(=O)C2CC2)CC1)NO` [Example I-260, (E)-3-(2-(4-(cyclopropylsulfonyl)piperazin-1-yl)phenyl)-N-hydroxyacrylamide], the concentration for half-maximal inhibition (IC50) is < 1000 nM.
`CC(C)(C)OC(=O)N1CC(=O)N(c2ccccc2/C=C/C(=O)NO)C1` [Example I-261, tert-butyl (E)-3-(2-(3-(hydroxyamino)-3-oxoprop-1-en-1-yl)phenyl)-4-oxoimidazolidine-1-carboxylate]: the IC50 was < 1000 nM.
On to `O=C(/C=C/c1ccccc1NC(=O)c1ccccc1CCc1ccccc1)NO` [Example I-267, (E)-N-(2-(3-(hydroxyamino)-3-oxoprop-1-en-1-yl)phenyl)-2-phenethylbenzamide], for which the IC50 was < 1000 nM.
As for `O=C(/C=C/c1ccccc1NC(=O)c1sc2ccccc2c1Cl)NO` [Example I-269, (E)-3-chloro-N-(2-(3-(hydroxyamino)-3-oxoprop-1-en-1-yl)phenyl)benzo[b]thiophene-2-carboxamide], the 50% inhibitory concentration (IC50) was < 1000 nM.
In the case of `Cc1oc(-c2ccccc2)cc1C(=O)Nc1ccccc1/C=C/C(=O)NO` [Example I-271, (E)-N-(2-(3-(hydroxyamino)-3-oxoprop-1-en-1-yl)phenyl)-2-methyl-5-phenylfuran-3-carboxamide] it was < 1000 nM; in that of `Cc1oc(-c2ccc(Cl)cc2)cc1C(=O)Nc1ccccc1/C=C/C(=O)NO` [Example I-272, (E)-5-(4-chlorophenyl)-N-(2-(3-(hydroxyamino)-3-oxoprop-1-en-1-yl)phenyl)-2-methylfuran-3-carboxamide], < 1000 nM.
As for `O=C(/C=C/c1ccccc1NC(=O)c1ccc(-n2cccc2)nc1)NO` [Example I-273, (E)-N-(2-(3-(hydroxyamino)-3-oxoprop-1-en-1-yl)phenyl)-6-(1H-pyrrol-1-yl)nicotinamide], the half-maximal inhibitory concentration (IC50) is < 1000 nM.
Take `CCCc1nc(-c2ccccc2)sc1C(=O)Nc1ccccc1/C=C/C(=O)NO` [Example I-276, (E)-N-(2-(3-(hydroxyamino)-3-oxoprop-1-en-1-yl)phenyl)-2-phenyl-4-propylthiazole-5-carboxamide]: the IC50 was < 1000 nM.
In the case of `Cc1nc(-c2ccccc2)sc1C(=O)Nc1ccccc1/C=C/C(=O)NO` [Example I-277, (E)-N-(2-(3-(hydroxyamino)-3-oxoprop-1-en-1-yl)phenyl)-4-methyl-2-phenylthiazole-5-carboxamide] it was < 1000 nM; in that of `Cc1ccccc1C(C(=O)Nc1ccccc1/C=C/C(=O)NO)C(C)C` (centres unmarked) [Example I-278, (E)-N-(2-(3-(hydroxyamino)-3-oxoprop-1-en-1-yl)phenyl)-3-methyl-2-(o-tolyl)butanamide], < 1000 nM.
`O=C(/C=C/c1ccccc1NC(=O)C(c1ccccc1)C1CCCC1)NO` (centres unmarked) [Example I-279, (E)-3-(2-(2-cyclopentyl-2-phenylacetamido)phenyl)-N-hydroxyacrylamide]: the IC50 is < 1000 nM.
In the case of `Cc1ccc(Sc2ncccc2C(=O)Nc2ccccc2/C=C/C(=O)NO)cc1` [Example I-280, (E)-N-(2-(3-(hydroxyamino)-3-oxoprop-1-en-1-yl)phenyl)-2-(p-tolylthio)nicotinamide] it was < 1000 nM.
Under `Cc1nc(C(C)(C)C)sc1C(=O)Nc1ccccc1/C=C/C(=O)NO` [Example I-283, (E)-2-(tert-butyl)-N-(2-(3-(hydroxyamino)-3-oxoprop-1-en-1-yl)phenyl)-4-methylthiazole-5-carboxamide] stands < 1000 nM.
Under `COc1cc(-c2ccccc2)sc1C(=O)Nc1ccccc1/C=C/C(=O)NO` [Example I-284, (E)-N-(2-(3-(hydroxyamino)-3-oxoprop-1-en-1-yl)phenyl)-3-methoxy-5-phenylthiophene-2-carboxamide] stands < 1000 nM; under `Cn1cc(-c2ncc(C(=O)Nc3ccccc3/C=C/C(=O)NO)s2)cn1` [Example I-285, (E)-N-(2-(3-(hydroxyamino)-3-oxoprop-1-en-1-yl)phenyl)-2-(1-methyl-1H-pyrazol-4-yl)thiazole-5-carboxamide], < 1000 nM.
With `Cc1cc(C(=O)Nc2ccccc2/C=C/C(=O)NO)ccc1-n1cnnn1` [Example I-286, (E)-N-(2-(3-(hydroxyamino)-3-oxoprop-1-en-1-yl)phenyl)-3-methyl-4-(1H-tetrazol-1-yl)benzamide], the IC50 was < 1000 nM.
Under `O=C(/C=C/c1ccccc1NC(=O)c1ccc(Cn2nnc3ccccc32)cc1)NO` [Example I-287, (E)-4-((1H-benzo[d][1,2,3]triazol-1-yl)methyl)-N-(2-(3-(hydroxyamino)-3-oxoprop-1-en-1-yl)phenyl)benzamide] stands < 1000 nM; under `Cc1nc(C(C)C(=O)N2CCN(c3ccccc3/C=C/C(=O)NO)CC2)cs1` (centres unmarked) [Example I-289, (E)-N-hydroxy-3-(2-(4-(2-(2-methylthiazol-4-yl)propanoyl)piperazin-1-yl)phenyl)acrylamide], < 1000 nM; under `O=C(/C=C/c1ccccc1N1Cc2cc(Cl)c(Cl)cc2C1)NO` [Example I-290, (E)-3-(2-(5,6-dichloroisoindolin-2-yl)phenyl)-N-hydroxyacrylamide], < 1000 nM.
For `CC(C(=O)N1CCN(c2ccccc2/C=C/C(=O)NO)CC1)c1ccc(Cl)cc1` (centres unmarked) [Example I-291, (E)-3-(2-(4-(2-(4-chlorophenyl)propanoyl)piperazin-1-yl)phenyl)-N-hydroxyacrylamide], the half-inhibitory concentration (IC50) was < 1000 nM.
Under `O=C(/C=C/c1ccccc1N1CCN(C(=O)C2(c3ccc(Cl)cc3)CC2)CC1)NO` [Example I-294, (E)-3-(2-(4-(1-(4-chlorophenyl)cyclopropane-1-carbonyl)piperazin-1-yl)phenyl)-N-hydroxyacrylamide] stands < 1000 nM; under `O=C(/C=C/c1ccccc1N1CCN(C(=O)Cc2cccnc2)CC1)NO` [Example I-295, (E)-N-hydroxy-3-(2-(4-(2-(pyridin-3-yl)acetyl)piperazin-1-yl)phenyl)acrylamide], < 1000 nM; under `O=C(/C=C/c1ccccc1N1CCN(C(=O)Cc2ccccn2)CC1)NO` [Example I-296, (E)-N-hydroxy-3-(2-(4-(2-(pyridin-2-yl)acetyl)piperazin-1-yl)phenyl)acrylamide], < 1000 nM.
For `CC(Cc1ccccc1)C(=O)N1CCN(c2ccccc2/C=C/C(=O)NO)CC1` (centres unmarked) [Example I-297, (E)-N-hydroxy-3-(2-(4-(2-methyl-3-phenylpropanoyl)piperazin-1-yl)phenyl)acrylamide], the IC50 was < 1000 nM.
In the case of `O=C(/C=C/c1ccccc1N1CCN(CCc2ccc(Cl)cc2)CC1)NO` [Example I-299, (E)-3-(2-(4-(4-chlorophenethyl)pipera-zin-1-yl)phenyl)-N-hydroxyacrylamide] it was < 1000 nM.
Under `CC(CN1CCN(c2ccccc2/C=C/C(=O)NO)CC1)c1ccccc1` (centres unmarked) [Example I-300, (E)-N-hydroxy-3-(2-(4-(2-phenylpropyl)piperazin-1-yl)phenyl)acrylamide] stands < 1000 nM.
In the case of `CC(C)(C)OC(=O)NC1CCN(c2ccccc2/C=C/C(=O)NO)C1` (centres unmarked) [Example I-301, tert-butyl (E)-(1-(2-(3-(hydroxyamino)-3-oxoprop-1-en-1-yl)phenyl)pyrrolidin-3-yl)carbamate] it was < 1000 nM.
